The compounds below were run against T1, human neutrophil elastase (HNE) (Homo sapiens, UniProt P08246) (assay: In vitro inhibition of HNE using a fluorogenic peptide substrate (continuous read-out signal, 384 MTP assay format)). Conditions: substrate MeOSuc-Ala-Ala-Pro-Val-AMC, 37° C.
T1 construct: purchased SERVA Electrophoresis GmbH, Heidelberg, Germany #20927.01
T1 sequence (P08246 30-267): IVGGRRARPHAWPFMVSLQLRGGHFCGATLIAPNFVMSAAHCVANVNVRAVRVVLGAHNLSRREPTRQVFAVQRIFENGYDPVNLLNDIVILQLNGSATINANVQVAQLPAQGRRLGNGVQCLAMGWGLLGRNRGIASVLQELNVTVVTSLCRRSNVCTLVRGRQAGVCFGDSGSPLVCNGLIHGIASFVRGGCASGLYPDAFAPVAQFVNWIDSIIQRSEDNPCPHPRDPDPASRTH
Assay type: biochemical
Experimental: I. In Vitro Enzyme Assays of Human Neutrophil Elastase (HNE)
assay buffer: 0.1 M HEPES-NaOH buffer pH 7.4, 0.5 M NaCl, 0.1% (w/v) bovine serum albumin;
suitable concentration (see below) of substrate in assay buffer;
suitable concentration of test compounds diluted with assay buffer from a 10 mM stock solution in DMSO.
The test solution is prepared by mixing 10 μl of test compound dilution, 20 μl of HNE enzyme dilution (final concentration 8–0.4 μU/ml, routinely 2.1 μU/ml) and 20 μl of substrate dilution (final concentration 1 mM–1 μM, routinely 20 μM), respectively. The solution is incubated for 0–2 hrs at 37° C. (routinely one hour). The fluorescence of the liberated AMC due to the enzymatic reaction is measured at 37° C. (TECAN spectra fluor plus plate reader). […] IC50 values are determined by RFU-versus-[I] plots. Km and Km(app.) values are determined by Lineweaver-Burk plots and converted to Ki values by Dixon plots.

Row | Compound | IC50 [nM]
1 | CC1=C(C#N)C(c2ccc(C#N)cc2)C(C(N)=O)C(=O)N1c1cccc(C(F)(F)F)c1 (single isomer, unassigned; (-)) [Example 98, (−)-5-Cyano-4-(4-cyanophenyl)-6-methyl-2-oxo-1-[3-(trifluoromethyl)phenyl]-1,2,3,4-tetrahydro-3-pyridinecarboxamide] | 8
2 | CCOC(=O)C1=C(C)N(c2cccc(C(F)(F)F)c2)C(=O)C(C(=O)OCC)C1c1ccc(C#N)cc1 (stereo not shown) [Example 1] | 30
3 | CCOC(=O)C1=C(C)N(c2cccc(C(F)(F)F)c2)C(=O)C(C(N)=O)C1c1ccc(C#N)cc1 (stereo not shown) [Example 3] | 20
4 | CC1=C(C#N)C(c2ccc(C#N)cc2)C(C(N)=O)C(=O)N1c1cccc(C(F)(F)F)c1 (stereo not shown) [Example 7, 5-Cyano-4-(4-cyanophenyl)-6-methyl-2-oxo-1-[3-(trifluoromethyl)phenyl]-1,2,3,4-tetrahydro-3-pyridinecarboxamide] | 13
5 | CC1=C(C#N)C(c2ccc(C#N)cc2)C(C(=O)N(C)C)C(=O)N1c1cccc(C(F)(F)F)c1 (stereo not shown) [Example 12, 5-Cyano-4-(4-cyanophenyl)-N,N,6-trimethyl-2-oxo-1-[3-(trifluoromethyl)phenyl]-1,2,3,4-tetrahydro-3-pyridinecarboxamide] | 25
6 | CC(=O)C1=C(C)N(c2cccc(C(F)(F)F)c2)C(=O)C(C(=O)N(C)C)C1c1ccc(C#N)cc1 (stereo not shown) [Example 13, 5-Acetyl4-(4-cyanophenyl)-N,N,6-trimethyl-2-oxo-1-[3-(trifluoromethyl)phenyl]-1,2,3,4-tetrahydro-3-pyridinecarboxamide] | 25
7 | CCOC(=O)C1=C(C)N(c2cccc(C(F)(F)F)c2)C(=O)C(C(=O)OCC)C1c1cc2cc(C#N)ccc2o1 (stereo not shown) [Example 15, Diethyl 4-(5-cyano-1-benzofuran-2-yl)-6-methyl-2-oxo-1-[3-(trifluoromethyl)phenyl]-1,2,3,4-tetrahydro-3,5-pyridinedicarboxylate] | 200
8 | CC1=C(C#N)C(c2ccc(C#N)cc2)C(C(=O)NCCC(=O)O)C(=O)N1c1cccc(C(F)(F)F)c1 (stereo not drawn) [Example 19, N-({5-Cyano-4-(4-cyanophenyl)-6-methyl-2-oxo-1-[3-(trifluoromethyl)phenyl]-1,2,3,4-tetrahydro-3-pyridinyl}carbonyl)-β-alanine] | 25
9 | COCCNC(=O)C1C(=O)N(c2cccc(C(F)(F)F)c2)C(C)=C(C#N)C1c1ccc(C#N)cc1 (stereo not shown) [Example 20, 5-Cyano-4-(4-cyanophenyl)-N-(2-methoxyethyl)-6-methyl-2-oxo-1-[3-(trifluoromethyl)phenyl]-1,2,3,4-tetrahydro-3-pyridinecarboxamide] | 30
10 | CC1=C(C#N)C(c2ccc(C#N)cc2)C(C(=O)NCCO)C(=O)N1c1cccc(C(F)(F)F)c1 (stereo not shown) [Example 68, 5-Cyano-4-(4-cyanophenyl)-6-methyl-2-oxo-1-[3-(trifluoromethyl)phenyl]-1,2,3,4-tetrahydropyridine-3-carboxylic acid (2-hydroxyethyl)amide] | 15
11 | CCNC(=O)C1=C(C)N(c2cccc(C(F)(F)F)c2)C(=O)CC1c1ccc(C#N)cc1 (stereo not shown) [Example 77] | 350

The compounds below were run on human polymorphonuclear cells (PMNs) (assay: In vitro PMN elastolysis assay (3H-elastin)). Conditions: at 1.2 μM; n=3 different donors at 3.6×10^5 cells per well; 4 hours at 37° C.
Assay type: cell-based
Experimental: In Vitro PMN Elastolysis Assay
This assay is used to determine the elastolytic potential of human polymorphonuclear cells (PMNs) and assess the proportion of degradation due to neutrophil elastase [cf. Z. W. She et al., Am. J. Respir. Cell. Mol. Biol. 9, 386–392 (1993)].
Tritiated elastin, in suspension, is coated on to a 96 well plate at 10 μg per well. Test and reference [ZD-0892 (J. Med. Chem. 40, 1876–1885, 3173–3181 (1997), WO 95/21855) and al protease inhibitor (α1PI)] compounds are added to the wells at the appropriate concentrations. Human PMNs are separated from peripheral venous blood of healthy donors and resuspended in culture media. The neutrophils are added to the coated wells at concentrations ranging between 1×10^6 to 1×10^5 cells per well. Porcine pancreatic elastase (1.3 μM) is used as a positive control for the assay, and α1PI (1.2 μM) is used as the positive inhibitor of neutrophil elastase. The cellular control is PMNs without compound at each appropriate cell density. The cells plus compounds are incubated in a humidified incubator at 37° C. for 4 hours. The plates are centrifuged to allow the harvest of cell supernatant only. […] The plates are dried until no liquid is visible in the wells and read in a beta counter for 3 minutes per well. […]
The compounds of this invention are evaluated for their inhibitory activity in this HNE-dependent model of neutrophil elastolysis.

Row | Compound | inhibition of elastolysis (mean±s.e.m.) [%]
12 | α1PI: al protease inhibitor (α1PI), used as the positive inhibitor of neutrophil elastase | 83.46±3.97

Same assay, conditions: n=2 different donors at 3.6×10^5 cells per well; 4 hours at 37° C.; read-out: IC50 (mean±s.e.m.)

Row | Compound | IC50 [nM]
13 | COc1ccc(C(=O)N[C@H](C(=O)N2CCC[C@H]2C(=O)N[C@H](C(=O)C(F)(F)F)C(C)C)C(C)C)cc1 [ZD-0892] | 45.5 ± 7.75
